Test [1] relates to mGlu1. The test can be described thus: potency. Format: cell-based. The settings on record: relative to FITM; ref 9 values.
The test system of test [2] is mGlu1. The settings on record: mGlu1 NAM potency of FITM and analogs used for docking; cited from earlier work.
The target in the next test is human mGlu1 receptor (Homo sapiens, UniProt Q13255). The test is described as follows: FITM binding affinity at mGlu1.
For the next test, the target named is mGlu5 (Homo sapiens, UniProt P41594). The test can be described thus: FITM selectivity for mGlu1 over mGlu5. Format: cell-based. The settings on record: mGlu1 versus mGlu5, Fig. S12.
Test [3] concerns the target wild-type (WT) full-length human mGlu1 receptor (Homo sapiens, UniProt Q13255). The test can be described thus: FITM-mediated antagonism of glutamate at wild-type full-length receptor. Format: cell-based. The note with it: WT full-length human mGlu1, versus glutamate.

Chain of mGlu5 (P41594 21-1212): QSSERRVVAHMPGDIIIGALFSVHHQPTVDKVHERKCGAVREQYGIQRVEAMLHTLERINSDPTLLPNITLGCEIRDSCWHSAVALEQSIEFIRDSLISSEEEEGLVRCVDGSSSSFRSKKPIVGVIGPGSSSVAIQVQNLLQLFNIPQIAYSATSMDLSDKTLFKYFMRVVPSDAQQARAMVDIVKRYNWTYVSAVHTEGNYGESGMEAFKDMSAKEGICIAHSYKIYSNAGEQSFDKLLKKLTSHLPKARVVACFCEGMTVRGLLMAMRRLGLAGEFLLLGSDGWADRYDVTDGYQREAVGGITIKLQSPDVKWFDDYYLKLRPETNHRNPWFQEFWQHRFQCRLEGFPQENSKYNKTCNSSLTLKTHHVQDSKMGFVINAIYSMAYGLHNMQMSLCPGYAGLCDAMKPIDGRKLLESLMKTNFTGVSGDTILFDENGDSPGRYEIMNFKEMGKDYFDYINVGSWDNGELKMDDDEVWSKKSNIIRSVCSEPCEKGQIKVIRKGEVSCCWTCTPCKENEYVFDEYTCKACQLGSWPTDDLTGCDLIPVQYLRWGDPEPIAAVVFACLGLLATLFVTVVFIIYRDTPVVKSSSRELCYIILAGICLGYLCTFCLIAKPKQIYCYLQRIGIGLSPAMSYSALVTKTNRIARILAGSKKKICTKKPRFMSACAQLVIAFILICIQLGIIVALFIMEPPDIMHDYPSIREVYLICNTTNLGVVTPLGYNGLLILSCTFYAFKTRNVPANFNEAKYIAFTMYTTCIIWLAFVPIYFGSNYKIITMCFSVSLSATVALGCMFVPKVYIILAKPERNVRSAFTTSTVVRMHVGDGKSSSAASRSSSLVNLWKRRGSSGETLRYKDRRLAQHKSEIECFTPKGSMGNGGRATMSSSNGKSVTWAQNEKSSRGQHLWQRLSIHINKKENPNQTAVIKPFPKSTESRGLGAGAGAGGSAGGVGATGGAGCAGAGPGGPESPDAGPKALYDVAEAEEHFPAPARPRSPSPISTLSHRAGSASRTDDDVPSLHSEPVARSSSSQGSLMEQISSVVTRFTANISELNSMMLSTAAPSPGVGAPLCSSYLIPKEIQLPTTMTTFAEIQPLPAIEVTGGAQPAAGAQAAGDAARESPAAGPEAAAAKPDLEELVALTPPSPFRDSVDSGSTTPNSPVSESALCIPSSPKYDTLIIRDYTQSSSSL
Chain of wild-type (WT) full-length human mGlu1 receptor (Q13255 19-1194): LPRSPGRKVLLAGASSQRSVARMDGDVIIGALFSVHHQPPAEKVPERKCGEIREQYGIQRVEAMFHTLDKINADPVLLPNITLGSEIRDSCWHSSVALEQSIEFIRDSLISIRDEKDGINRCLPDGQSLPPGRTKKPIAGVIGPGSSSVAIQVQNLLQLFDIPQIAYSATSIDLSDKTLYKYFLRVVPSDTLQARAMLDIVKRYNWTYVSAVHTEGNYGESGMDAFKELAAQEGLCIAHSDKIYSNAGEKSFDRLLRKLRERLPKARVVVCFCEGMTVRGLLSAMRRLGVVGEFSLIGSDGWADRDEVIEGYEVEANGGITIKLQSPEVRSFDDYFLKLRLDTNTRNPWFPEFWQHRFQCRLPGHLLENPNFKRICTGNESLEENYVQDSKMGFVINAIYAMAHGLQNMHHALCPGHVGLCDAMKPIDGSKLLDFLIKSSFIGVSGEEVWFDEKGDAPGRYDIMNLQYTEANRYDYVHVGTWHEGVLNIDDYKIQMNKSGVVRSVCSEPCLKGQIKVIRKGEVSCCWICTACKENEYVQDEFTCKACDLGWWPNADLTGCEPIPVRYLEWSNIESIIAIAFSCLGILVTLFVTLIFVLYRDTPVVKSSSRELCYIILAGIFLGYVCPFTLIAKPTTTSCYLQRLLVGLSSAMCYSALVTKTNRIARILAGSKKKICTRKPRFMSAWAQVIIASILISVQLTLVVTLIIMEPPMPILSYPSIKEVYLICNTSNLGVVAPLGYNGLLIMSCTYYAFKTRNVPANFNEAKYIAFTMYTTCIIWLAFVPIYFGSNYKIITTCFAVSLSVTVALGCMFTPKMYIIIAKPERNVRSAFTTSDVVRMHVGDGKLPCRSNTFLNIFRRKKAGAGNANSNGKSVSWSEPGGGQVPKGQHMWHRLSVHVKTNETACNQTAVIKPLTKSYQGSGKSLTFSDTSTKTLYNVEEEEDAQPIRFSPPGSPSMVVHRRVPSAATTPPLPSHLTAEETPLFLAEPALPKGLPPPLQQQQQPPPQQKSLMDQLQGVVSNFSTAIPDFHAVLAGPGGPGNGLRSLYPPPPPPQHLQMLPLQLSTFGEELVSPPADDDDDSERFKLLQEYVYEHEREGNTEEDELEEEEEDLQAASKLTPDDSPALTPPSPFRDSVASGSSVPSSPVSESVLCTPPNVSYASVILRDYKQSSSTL
Chain of human mGlu1 receptor (Q13255 581-860): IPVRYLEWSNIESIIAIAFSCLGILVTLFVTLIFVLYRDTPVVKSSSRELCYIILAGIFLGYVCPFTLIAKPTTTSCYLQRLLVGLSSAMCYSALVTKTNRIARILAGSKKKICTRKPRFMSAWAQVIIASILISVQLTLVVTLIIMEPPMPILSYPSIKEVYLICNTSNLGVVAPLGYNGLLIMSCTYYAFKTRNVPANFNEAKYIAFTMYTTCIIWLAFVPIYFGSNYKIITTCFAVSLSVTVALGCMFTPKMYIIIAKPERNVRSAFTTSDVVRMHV

The IC50 is the midpoint of a concentration-inhibition curve. As for `CC(C)N(C)c1cc(-c2csc(N(C)C(=O)c3ccc(F)cc3)n2)ncn1` [compound 28], in the test with mGlu1 [1], the “fold lower potency than FITM” value is “approximately 10 fold”. Moreover, in the test with mGlu1 [2], the IC50 is 77 nM.
As a reminder, the Ki is the equilibrium dissociation constant of an inhibitor or competing ligand from its target. Low values mean higher affinity, high ones lower affinity. With `CC(C)Nc1cc(-c2csc(N(C)C(=O)c3ccc(F)cc3)n2)ncn1` [FITM, 4-fluoro-N-(4-(6-(isopropylamino)pyrimidin-4-yl)thiazol-2-yl)-N-methylbenzamide], the affinity at human mGlu1 receptor corresponds to a Ki of 2.5 nM. Also, the subtype selectivity result on mGlu5 is “selectivity for mGlu1 over mGlu5”. For the same compound, the “mode of allosteric modulation” value in test [3] is listed as “full NAM”. Besides, the IC50 in the test on mGlu1 [2] is 5 nM.

Source of the values: publication PMC3991565 (Science (New York, N.Y.), 2014).
